In patent publication US7829063B2, “Development of molecular imaging probes for carbonic anhydrase-IX using click chemistry” (Siemens Medical Solutions USA, Inc., priority 2007, dated 2010):
Read-outs that look alike come from different tables or passages of the source.

Target: T1, CA-IX (Homo sapiens, UniProt Q16790)
T1 construct: His tag (C); purchased R&D Systems Inc. 2188-CA; host or cells: mouse myeloma cell line NS0
Test: CA-IX combinatorial library screening, competitive fluorescence-based assay with dansylamide (DNSA)
Type: binding
Conditions: 1 h, sample concentrations 100 nM and 1000 nM, DNSA 200 μM, screening at 1 μM
Description: General. CA-IX human recombinant enzyme was expressed with a C-terminal His tag in a mouse myeloma cell line, NS0 (R&D Systems Inc., catalog number 2188-CA). The human red blood cells were obtained from Research Blood Components, LLC. All absorbance measurements were performed on a SPECTRA MAX M2 plate reader at 25° C. The LC/MS analyses were performed on an Agilent 1100 series LC/MSD (SL) using a 30×2.1 mm Zorbax C8 column with a Phenomenex C18 pre-column. Compound detection was accomplished by electrospray mass spectroscopy in positive selected ion mode (LC/MS-SIM). The elution solvents were acetonitrile and water, contained 0.05% TFA. Nuclear magnetic resonance (NMR) spectra were obtained on a Bruker AMX 300 MHz spectrometer or a Varian 400. 19F NMR spectra were recorded on a Bruker AMX 282.35 MHz or a Varian 400 spectrometer. The mass spectra were recorded on an Agilent 1100 series LC/MSD with electrospray mass spectroscopic detection. Flash column chromatography was performed on Merck silica gel (40-63 μm) using the solvent system indicated. The radiochemical and chemical purities were analyzed by RP-HPLC.
General Combinatorial Library Screening Protocol for CA-IX
The CA-IX screening assay was employed for testing libraries derived from the various “anchor” molecules, using ethoxzolamide as a positive control. The assay was performed at a substrate (dansylamide, DNSA) concentration of 200 μM, and sample concentrations of 100 nM and 1000 nM, respectively. A modified competitive fluorescence-based assay (A. Jain, S. G. Huang, G. M. Whitesides, J. Am. Chem. Soc. 1994, 116, 5057) was used to measure CA-IX activity. The enzymatic assay was carried out in a 96-well plate. To the wells, deionized water, 40 μL of phosphate buffer (250 mM, pH 7.4), 2.4 μL of CA-IX (17 μM), and 2 μL or 20 μL of inhibitor (concentration of 100 nM or 1000 nM) were added to achieve a final volume of 180 μL. Reactions were initiated by adding 20 μL DNSA (200 μM) to each well and the plate was incubated at 25° C. for 1 hour. The fluorescence intensities from each well of the plate were then read at 460 nm using a plate reader with an excitation wavelength of 290 nm.

[1] = Table 2, Libraries 4-7, read-out: In Vitro Binding Assay (Library (Screening))
[2] = Table 1, Libraries 1-3, read-out: In Vitro Binding Assay (Library Screening)

Compound | inhibition at 1 µM [1] | inhibition at 1 µM [2]
Cn1c(CNC(=O)[C@H](Cc2ccccc2)n2cc(COc3ccc4nc(S(N)(=O)=O)sc4c3)nn2)nc2ccccc21 [DHK-2-73] | < 40% | –
CC(C)[C@@H](C(=O)N(C)Cc1ccccc1)n1cc(COc2ccc3nc(S(N)(=O)=O)sc3c2)nn1 [DHK-2-26] | < 40% | –
CC(C)[C@@H](C(=O)N1CCN(c2ncccn2)CC1)n1cc(COc2ccc3nc(S(N)(=O)=O)sc3c2)nn1 [DHK-2-28] | < 40% | –
NS(=O)(=O)c1ccc(-c2cn([C@@H](Cc3ccccc3)C(=O)NCC3CC3)nn2)cc1 [DHK-2-13] | < 40% | –
NS(=O)(=O)c1ccc(-c2cn([C@@H](Cc3ccccc3)C(=O)NCCCO)nn2)cc1 [DHK-2-14] | < 40% | –
CN(C)Cc1ccc(CSCCNC(=O)[C@H](Cc2ccccc2)n2cc(COc3ccc4nc(S(N)(=O)=O)sc4c3)nn2)o1 [DHK-2-54] | < 40% | –
NS(=O)(=O)c1ccc(-c2cn([C@@H](Cc3ccccc3)C(=O)NCc3ccc(F)cc3)nn2)cc1 [DHK-2-1] | < 40% | –
NS(=O)(=O)c1nc2ccc(OCc3cn([C@@H](Cc4ccccc4)C(=O)NCc4ccc(F)cc4)nn3)cc2s1 [DHK-2-52] | < 40% | –
CC(C)[C@@H](C(=O)NCCCO)n1cc(COc2ccc3nc(S(N)(=O)=O)sc3c2)nn1 [DHK-2-38] | < 40% | –
CCOC(=O)[C@@H](NC(=O)[C@H](Cc1ccccc1)n1cc(-c2ccc(S(N)(=O)=O)cc2)nn1)C(C)C [DHK-2-9] | < 40% | –

Further lines, results first:

inhibition at 1 µM [1] | inhibition at 1 µM [2] | Compound
< 40% | – | CCOC(=O)[C@@H](NC(=O)[C@H](C(C)C)n1cc(-c2ccc(S(N)(=O)=O)cc2)nn1)C(C)C [DHK176]
– | < 40% | CC(C)C[C@@H](C(=O)NCc1ccccc1)n1cc(COc2ccc3nc(S(N)(=O)=O)sc3c2)nn1 [DIIK118]
– | < 40% | NS(=O)(=O)c1ccc(C(=O)NCc2cn(Cn3nnc4ccccc43)nn2)cc1 [DHK55]
– | < 40% | NS(=O)(=O)c1ccc(C(=O)NCc2cn(CCn3c(=O)[nH]c4ccccc4c3=O)nn2)cc1 [DHK93]
– | < 40% | Cc1ccnc(NC(=O)[C@H](Cc2ccccc2)n2cc(COc3ccc4nc(S(N)(=O)=O)sc4c3)nn2)c1 [DHK115]
– | < 40% | CCCOC(=O)c1ccc(NC(=O)Cn2cc(COc3ccc4nc(S(N)(=O)=O)sc4c3)nn2)cc1 [DHK130]
– | < 40% | CC1CCCN(C(=O)C(C(C)C)n2cc(COc3ccc4nc(S(N)(=O)=O)sc4c3)nn2)C1 (stereo not drawn) [DHK119]
– | < 40% | CC(C)[C@@H](C(=O)NC1CCCCC1)n1cc(CNC(=O)c2ccc(S(N)(=O)=O)cc2)nn1 [DHK50]
< 40% | – | CC(C)[C@@H](C(=O)NCc1ccccn1)n1cc(-c2ccc(S(N)(=O)=O)cc2)nn1 [DHK178]
< 40% | – | CCOC(=O)CCN(Cc1ccco1)C(=O)[C@H](C(C)C)n1cc(-c2ccc(S(N)(=O)=O)cc2)nn1 [DHK183]
– | < 40% | CC(CN(C)C)Cn1cc(-c2ccc(S(N)(=O)=O)cc2)nn1 (stereo not drawn) [DHK14]
– | < 40% | COC(=O)[C@H](CSCc1ccccc1)NC(=O)Cn1cc(-c2ccc(S(N)(=O)=O)cc2)nn1 [DHK4]
– | < 40% | NS(=O)(=O)c1ccc(-c2cn(CCOc3ccc4ccc(=O)oc4c3)nn2)cc1 [DHK63]
– | < 40% | NS(=O)(=O)c1ccc(-c2cn(Cc3cccc(Br)c3)nn2)cc1 [DHK18]
– | < 40% | NS(=O)(=O)c1ccc(C(=O)NCc2cn(-c3cccc(C(=O)NN4CCOCC4)c3)nn2)cc1 [DHK39]
– | < 40% | NS(=O)(=O)c1ccc(C(=O)NCc2cn(C3CCN(S(=O)(=O)/C=C/c4ccccc4)CC3)nn2)cc1 [DHK96]
– | < 40% | CCOC(=O)c1ccc(Cn2cc(-c3ccc(S(N)(=O)=O)cc3)nn2)cc1 [DHK22]
– | < 40% | CCCOC(=O)c1ccc(NC(=O)Cn2cc(-c3ccc(S(N)(=O)=O)cc3)nn2)cc1 [DHK3]
< 40% | – | CC(C)[C@@H](C(=O)N(C)Cc1ccccc1)n1cc(-c2ccc(S(N)(=O)=O)cc2)nn1 [DHK166]
– | < 40% | CCCCCC[C@H](O)[C@@H](O)c1ccc(Cn2cc(-c3ccc(S(N)(=O)=O)cc3)nn2)cc1 [DHK70]
